In brackets after ≈: the same amount, converted by molar mass. Like-named read-outs stand apart in the source and are kept apart here.

Drawing on patent US11926627B1 (priority 2023, dated 2024), this text covers MIC for 4 compounds.

This experiment concerns Mycobacterium tuberculosis H37Rv (ATCC: 25177). In words: Resazurin Microplate Assay (REMA), antitubercular activity against H37Rv. As to conditions: 192 h, read-out: Antitubercular activity against Mycobacterium tuberculosis H37Rv (MIC). Type of experiment: cell-based. For orientation: Alamar Blue is a resazurin reagent that responds to reducing activity.
The mark [1] stands for this setting: H37Rv, ATCC: 25177, REMA, Middlebrook 7H9 broth, 8 days incubation at 37° C. then resazurin overnight.

With `COC(=O)c1c(C(=O)OC)c2ccc3cc(C)ccc3n2c1C(=O)c1ccc(Cl)cc1` [7-METHYL-QUIN4, Dimethyl 1-(4-chlorobenzoyl)-7-methylpyrrolo[1,2-α]quinoline-2,3-dicarboxylate], the MIC under setting [1] was found to be 4 µg/mL (≈ 9.18 µM). The same measure, in the same setting: the same measure for `CCOC(=O)c1cc(C(=O)c2ccc(Cl)cc2)n2c1ccc1cc(C)ccc12` [7-METHYL-QUIN3, Ethyl 1-(4-chlorobenzoyl)-7-methylpyrrolo[1,2-α]quinoline-3-carboxylate]: 4 µg/mL (≈ 10.2 µM). With `COC(=O)c1c(C(=O)OC)c2ccc3cc(C)ccc3n2c1C(=O)c1ccc(F)cc1` [7-METHYL-QUIN1, Dimethyl 1-(4-fluorobenzoyl)-7-methylpyrrolo[1,2-α]quinoline-2,3-dicarboxylate], the MIC (H37RV) was determined as 0.5 µg/mL (≈ 1.19 µM).

`COC(=O)c1c(C(=O)OC)c2ccc3cc(C)ccc3n2c1C(=O)c1ccc(Br)cc1` [7-METHYL-QUIN2, Dimethyl 1-(4-bromobenzoyl)-7-methylpyrrolo[1,2-α]quinoline-2,3-dicarboxylate]: the MIC under setting [1] is 2 µg/mL (≈ 4.16 µM).

What is called MIC is the smallest concentration in the dilution series that meets the test's criterion for growth inhibition.
